US7678815B2, “Thiazole-4-carboxyamide derivatives” (Hoffmann-La Roche Inc., priority 2005, dated 2010)
pKi: −log10 of the molar value.

These compounds were tested against T1, human mGlu 5a receptor (Homo sapiens, UniProt P41594) (assay: [3H]MPEP competition binding on membranes of EBNA cells transfected with human mGlu 5a receptor). Settings: competition with [3H]MPEP (2 nM), 1 h at 4° C., Ki=IC50/[1+L/Kd].
T1 construct: expressed in transfected cells; host or cells: EBNA cells (transient transfection), cell membrane homogenates
T1 sequence (P41594 21-1180 isoform P41594-2 limits assumed): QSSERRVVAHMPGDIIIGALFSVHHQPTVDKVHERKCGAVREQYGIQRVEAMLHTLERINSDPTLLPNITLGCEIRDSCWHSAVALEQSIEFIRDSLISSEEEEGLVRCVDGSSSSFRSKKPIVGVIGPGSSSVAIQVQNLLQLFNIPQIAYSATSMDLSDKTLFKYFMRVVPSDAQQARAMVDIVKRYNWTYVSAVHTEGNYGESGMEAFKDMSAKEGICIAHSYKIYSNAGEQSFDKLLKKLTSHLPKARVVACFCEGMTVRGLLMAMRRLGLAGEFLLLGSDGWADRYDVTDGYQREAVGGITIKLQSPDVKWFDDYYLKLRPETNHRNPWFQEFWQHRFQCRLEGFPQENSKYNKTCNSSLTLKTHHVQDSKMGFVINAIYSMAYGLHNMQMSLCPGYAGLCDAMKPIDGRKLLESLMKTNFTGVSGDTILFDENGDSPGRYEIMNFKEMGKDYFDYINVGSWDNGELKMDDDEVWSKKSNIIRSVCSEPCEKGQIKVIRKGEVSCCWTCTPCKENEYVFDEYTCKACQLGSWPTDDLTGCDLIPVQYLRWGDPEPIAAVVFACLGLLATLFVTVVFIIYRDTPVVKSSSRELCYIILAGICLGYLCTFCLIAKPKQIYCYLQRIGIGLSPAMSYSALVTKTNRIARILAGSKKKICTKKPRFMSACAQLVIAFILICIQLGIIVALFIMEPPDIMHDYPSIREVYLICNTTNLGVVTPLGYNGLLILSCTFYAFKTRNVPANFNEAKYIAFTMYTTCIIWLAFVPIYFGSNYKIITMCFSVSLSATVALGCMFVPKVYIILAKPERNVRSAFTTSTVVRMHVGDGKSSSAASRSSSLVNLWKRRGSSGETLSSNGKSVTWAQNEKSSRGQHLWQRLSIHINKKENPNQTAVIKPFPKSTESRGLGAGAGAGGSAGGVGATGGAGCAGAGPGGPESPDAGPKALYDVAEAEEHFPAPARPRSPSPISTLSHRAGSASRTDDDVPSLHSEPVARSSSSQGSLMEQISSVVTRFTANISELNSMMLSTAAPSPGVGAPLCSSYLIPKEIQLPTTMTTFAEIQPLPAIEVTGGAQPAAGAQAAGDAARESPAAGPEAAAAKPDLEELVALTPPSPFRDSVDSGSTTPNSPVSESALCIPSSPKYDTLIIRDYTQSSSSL
Protocol: The pharmacological activity of the compounds was tested using the following method: For binding experiments, cDNA encoding human mGlu 5a receptor was transiently transfected into EBNA cells using a procedure described by Schlaeger and Christensen [Cytotechnology 15:1-13 (1998)]. Cell membrane homogenates were stored at −80° C. until the day of assay where upon they were thawed and resuspended and polytronized in 15 mM Tris-HCl, 120 mM NaCl, 100 mM KCl, 25 mM CaCl2, 25 mM MgCl2 binding buffer at pH 7.4 to a final assay concentration of 20 μg protein/well.
Saturation isotherms were determined by addition of twelve [^3H]MPEP concentrations (0.04-100 nM) to these membranes (in a total volume of 200 μl) for 1 h at 4° C. Competition experiments were performed with a fixed concentration of [^3H]MPEP (2 nM) and IC50 values of test compounds evaluated using 11 concentrations (0.3-10,000 nM). Incubations were performed for 1 h at 4° C.
At the end of the incubation, membranes were filtered onto unifilter (96-well white microplate with bonded GF/C filter preincubated 1 h in 0.1% PEI in wash buffer, Packard Bio-Science, Meriden, Conn.) with a Filtermate 96 harvester (Packard BioScience) and washed 3 times with cold 50 mM Tris-HCl, pH 7.4 buffer. Nonspecific binding was measured in the presence of 10 μM MPEP. The radioactivity on the filter was counted (3 min) on a Packard Top-count microplate scintillation counter with quenching correction after addition of 45 μl of microscint 40 (Canberra Packard S.A., Zürich, Switzerland) and shaking for 20 min.
For binding experiments the Ki values of the compounds tested are given. The Ki value is defined by the following formula: Ki=IC50/[1+L/Kd] in which the IC50 values are those concentrations of the compounds tested which cause 50% inhibition of the competing radioligand ([^3H]MPEP). L is the concentration of radioligand used in the binding experiment and the Kd value of the radioligand is empirically determined for each batch of membranes prepared.
`Cc1cccc(NC(=O)c2nc(C)sc2Nc2cccc(S(C)(=O)=O)c2)n1` [Example 149, 5-(3-Methanesulfonyl-phenylamino)-2-methyl-thiazole-4-carboxylic acid (6-methyl-pyridin-2-yl)-amide] showed a pKi of 7.28.
`Cc1csc(NC(=O)c2ncsc2Nc2cccc(C#N)c2)n1` [Example 81, 5-(3-Cyano-phenylamino)-thiazole-4-carboxylic acid (4-methyl-thiazol-2-yl)-amide] was tested, and the pKi was 7.72.
With `CC(=O)c1cccc(Nc2scnc2C(=O)Nc2cccc(C)n2)c1` [Example 88, 5-(3-Acetyl-phenylamino)-thiazole-4-carboxylic acid (6-methyl-pyridin-2-yl)-amide] the pKi was 7.74.
With `O=C(Nc1cccc(Cl)c1)c1ncsc1Nc1cccnc1` [Example 2, 5-(Pyridin-3-ylamino)-thiazole-4-carboxylic acid (3-chloro-phenyl)-amide] the pKi was 6.91.
For `Cc1cccc(NC(=O)c2ncsc2Nc2ccccc2)n1` [Example 13, 5-Phenylamino-thiazole-4-carboxylic acid (6-methyl-pyridin-2-yl)-amide], the pKi was 7.59.
With `CNc1scnc1C(=O)Nc1cccc(Cl)c1` [Example 24, 5-Methylamino-thiazole-4-carboxylic acid (3-chloro-phenyl)-amide] the pKi was 6.90.
For `Cc1nc(C(=O)Nc2cccc(Cl)c2)c(Nc2cccc(CNC(=O)OC(C)(C)C)c2)s1` [Example 145, {3-[4-(3-Chloro-phenylcarbamoyl)-2-methyl-thiazol-5-ylamino]-benzyl}-carbamic acid tert-butyl ester], the pKi was 7.40.
Work on `Cc1cccc(NC(=O)c2ncsc2Nc2cccnc2)n1` [Example 1, 5-(Pyridin-3-ylamino)-thiazole-4-carboxylic acid (6-methyl-pyridin-2-yl)-amide] yielded a pKi of 7.54.
For `Cc1cccc(NC(=O)c2ncsc2Nc2c(C)noc2C)n1` [Example 74, 5-(3,5-Dimethyl-isoxazol-4-ylamino)-thiazole-4-carboxylic acid (6-methyl-pyridin-2-yl)-amide], the pKi was 7.00.
`O=C(Nc1cccc(Cl)c1)c1ncsc1NC1CC1` [Example 18, 5-Cyclopropylamino-thiazole-4-carboxylic acid (3-chloro-phenyl)-amide] gave a pKi of 6.34.
Compound `Cc1nccc(NC(=O)c2nc(C)sc2Nc2cccc(C(N)=O)c2)n1` [Example 209, 5-(3-Carbamoyl-phenylamino)-2-methyl-thiazole-4-carboxylic acid (2-methyl-pyrimidin-4-yl)-amide] has a pKi of 7.40.
